Results: article PMC7824300, “Expanding the Structural Diversity of DNA Methyltransferase Inhibitors” (Pharmaceuticals, 2020)
Like-named read-outs stand apart in the source and are kept apart here.

Experiments:
[1] = target: T1, DNMT1 (Homo sapiens, UniProt P26358); assay: HotSpot radioisotope methyltransferase assay, DNMT1 (Poly dI-dC substrate); format: biochemical; conditions: for inhibition at 100 µM / relative enzymatic activity of DNMT1 / inhibition of DNMT1: 100 μM compound; for relative enzymatic activity of DNMT1: mean of two measurements ± SD; for inhibition of DNMT1: 100 µM
T1 construct: purchased Reaction Biology Corporation (contract screening service)
Method: First, the 10 compounds were tested at a single concentration (100 μM) in duplicate in a biochemical DNMT assay. […] Predicted binding modes for the five compounds were studied using molecular docking, implementing a novel re-scoring algorithm recently developed.
The inhibition of the enzymatic activity of DNMT1, DNMT3B, and DNMT3B/3L was tested using the HotSpot^SM platform for methyltransferase assays available at Reaction Biology Corporation. HotSpot^SM is a low volume radioisotope-based assay that uses tritium-labeled AdoMet (^3H-SAM) as a methyl donor. The test compounds diluted in dimethyl sulfoxide were added using acoustic technology (Echo550, Labcyte) into enzyme/substrate mixture in the nano-liter range. The corresponding reactions were commenced by the addition of ^3H-SAM and incubated at 30°C. Total final methylations on the substrate (Poly dI-dC in DNMT1 assay, and Lambda DNA in DNMT3B; DNMT3B/3L assay) were identified by a filter binding method implemented in Reaction Biology. Data analysis was conducted with Graphed Prism software (La Jolla, CA, USA) for curve fits. Reactions were carried out at 1 μM of SAM. […] The 10 compounds were tested first with DNMT1 and DNMT3B at one 100 μM concentration in duplicate. […] Theaflavin was also tested with DNMT3B and DNMT3B/L in 10-dose IC50 with threefold serial dilution starting at 100 μM.

[2] = target: T2, DNMT3B (Homo sapiens, UniProt Q9UBC3); assay: HotSpot radioisotope methyltransferase assay, DNMT3B (Lambda DNA substrate); format: biochemical; conditions: for relative enzymatic activity of DNMT3B: mean of two measurements ± SD, 1 μM SAM
T2 construct: purchased Reaction Biology Corporation (contract screening service)
Method: First, the 10 compounds were tested at a single concentration (100 μM) in duplicate in a biochemical DNMT assay. SAH was used as a reference. […] Predicted binding modes for the five compounds were studied using molecular docking, implementing a novel re-scoring algorithm recently developed.
(§1) The inhibition of the enzymatic activity of DNMT1, DNMT3B, and DNMT3B/3L was tested using the HotSpot^SM platform for methyltransferase assays available at Reaction Biology Corporation. HotSpot^SM is a low volume radioisotope-based assay that uses tritium-labeled AdoMet (^3H-SAM) as a methyl donor. The test compounds diluted in dimethyl sulfoxide were added using acoustic technology (Echo550, Labcyte) into enzyme/substrate mixture in the nano-liter range. The corresponding reactions were commenced by the addition of ^3H-SAM and incubated at 30°C. Total final methylations on the substrate (Poly dI-dC in DNMT1 assay, and Lambda DNA in DNMT3B; DNMT3B/3L assay) were identified by a filter binding method implemented in Reaction Biology. Data analysis was conducted with Graphed Prism software (La Jolla, CA, USA) for curve fits. Reactions were carried out at 1 μM of SAM. In all assays, SAH was used as a standard positive control. The 10 compounds were tested first with DNMT1 and DNMT3B at one 100 μM concentration in duplicate. […] Theaflavin was also tested with DNMT3B and DNMT3B/L in 10-dose IC50 with threefold serial dilution starting at 100 μM. The authors have previously contracted the screening services of Reaction Biology Corporation to identify a novel inhibitor of DNMT1 [24].

[3] = system: U373MG cell line; conditions: read-out: IC50 for U373MG cell line; human glioblastoma cell line harboring inactive mutant p53; cited from earlier work
[4] = system: A549 cell line; conditions: read-out: IC50 for A549 cell line; human lung cancer cell line harboring wild-type p53; cited from earlier work
[5] = system: Hut78 cell line; conditions: read-out: IC50 for Hut78 cell line; cutaneous T cell lymphoma; cited from earlier work
[6] = target: viral NS5 RNA methyltransferase; parameters: method as in PMID 20108931; conditions: cited from earlier work
[7] = target: viral NS5 RNA methyltransferase; parameters: method as in PMID 20108931; conditions: cited from earlier work; remark: listed apart in the source
[8] = target: T3, DNMT3B/3L (Homo sapiens, UniProt Q9UBC3); assay: HotSpot radioisotope methyltransferase assay, DNMT3B/3L (Lambda DNA substrate); format: biochemical; conditions: 10-dose, threefold serial dilution starting at 100 μM
T3 construct: purchased Reaction Biology Corporation (contract screening service)
Method: as §1

[9] = Table 3, read-out: % Inhibition (DNMT1)
[10] = rounded values, read-out: inhibition of DNMT1
[11] = 10-dose, threefold serial dilution starting at 100 μM, 1 μM SAM, mean of two measurements, read-out: DNMT1 IC50
[12] = 100 μM compound, rounded values

T1 sequence (P26358 whole entry): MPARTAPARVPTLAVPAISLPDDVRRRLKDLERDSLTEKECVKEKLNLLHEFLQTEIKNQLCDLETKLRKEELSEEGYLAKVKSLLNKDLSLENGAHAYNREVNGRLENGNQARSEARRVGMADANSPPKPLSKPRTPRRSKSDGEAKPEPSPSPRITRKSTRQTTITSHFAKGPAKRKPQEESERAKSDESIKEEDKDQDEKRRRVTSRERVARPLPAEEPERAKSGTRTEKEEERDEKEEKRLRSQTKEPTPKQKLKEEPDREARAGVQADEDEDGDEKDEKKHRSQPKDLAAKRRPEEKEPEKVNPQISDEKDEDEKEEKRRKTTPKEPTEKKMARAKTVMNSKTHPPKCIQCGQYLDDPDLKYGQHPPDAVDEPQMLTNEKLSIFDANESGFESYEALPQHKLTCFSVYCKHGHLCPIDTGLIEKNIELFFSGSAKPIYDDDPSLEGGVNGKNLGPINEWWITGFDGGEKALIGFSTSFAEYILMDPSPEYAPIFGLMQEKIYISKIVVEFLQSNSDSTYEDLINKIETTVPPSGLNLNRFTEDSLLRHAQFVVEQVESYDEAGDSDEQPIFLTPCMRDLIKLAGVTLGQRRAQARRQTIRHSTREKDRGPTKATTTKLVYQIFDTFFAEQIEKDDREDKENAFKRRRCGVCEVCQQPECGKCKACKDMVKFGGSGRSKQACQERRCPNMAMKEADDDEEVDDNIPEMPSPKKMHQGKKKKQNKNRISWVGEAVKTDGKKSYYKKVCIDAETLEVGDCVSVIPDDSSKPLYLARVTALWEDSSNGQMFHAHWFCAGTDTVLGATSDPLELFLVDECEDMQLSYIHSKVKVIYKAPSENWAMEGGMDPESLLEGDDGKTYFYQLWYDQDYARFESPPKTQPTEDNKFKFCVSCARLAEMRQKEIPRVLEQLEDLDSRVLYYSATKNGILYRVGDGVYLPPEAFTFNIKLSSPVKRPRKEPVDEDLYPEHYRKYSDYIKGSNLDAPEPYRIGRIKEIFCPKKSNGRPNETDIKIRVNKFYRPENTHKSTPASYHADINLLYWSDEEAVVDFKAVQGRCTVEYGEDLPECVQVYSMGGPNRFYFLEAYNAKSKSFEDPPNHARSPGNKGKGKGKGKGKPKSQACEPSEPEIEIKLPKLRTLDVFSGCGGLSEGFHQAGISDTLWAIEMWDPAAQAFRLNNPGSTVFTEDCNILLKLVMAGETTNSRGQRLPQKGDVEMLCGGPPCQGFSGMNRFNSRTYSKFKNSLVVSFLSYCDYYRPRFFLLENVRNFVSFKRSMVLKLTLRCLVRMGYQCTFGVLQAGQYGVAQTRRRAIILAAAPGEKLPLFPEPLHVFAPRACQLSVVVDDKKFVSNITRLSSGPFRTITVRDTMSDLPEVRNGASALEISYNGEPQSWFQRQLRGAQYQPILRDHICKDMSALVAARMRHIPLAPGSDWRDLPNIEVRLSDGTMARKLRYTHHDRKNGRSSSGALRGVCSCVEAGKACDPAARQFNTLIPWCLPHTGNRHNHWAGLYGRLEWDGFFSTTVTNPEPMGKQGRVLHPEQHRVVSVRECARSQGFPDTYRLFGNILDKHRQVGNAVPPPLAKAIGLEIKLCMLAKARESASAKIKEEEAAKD

| SMILES | inhibition at 100 µM [1, 9] | relative enzymatic activity of DNMT1 ([1]; 1 μM SAM) | inhibition at 100 µM [1, 10] | relative enzymatic activity of DNMT3B ([2]; 100 μM compound) | IC50 [1, 11] | further results |
| --- | --- | --- | --- | --- | --- | --- |
| COc1ccc(S(=O)(=O)Nc2c(C)n(C)n(-c3ccccc3)c2=O)cc1C(=O)O [compound 6631802] | 6.74% | 93.26 (±7.97) % |  | 93.54 (±0.54) % |  |  |
| NNc1nncc2ccccc12 [Hydralazine] |  |  |  |  |  | IC50 [3]: 20 µM; IC50 [4]: 2 µM; IC50 [5]: 30 µM |
| Cc1ccc(Cl)cc1NS(=O)(=O)c1ccc(NS(=O)(=O)c2ccc3ccccc3c2)cc1 [compound 7936171] | 62.3% | 37.74 (±2.15) % | 62% | 78.20 (±0.30) % | 78.5 µM | IC50 [6]: 64.2 µM; IC50 ([1]; -log value of the IC50, read-out: pIC50 (DNMT1) (converted)): 77.6 µM; inhibition at 100 µM [2, 12]: 22%; inhibition of DNMT3B ([2]; 100 μM compound, rounded values, listed as naphthalene sulfonamide, 100 µM): higher than 20%; EC50 [7]: 12 µM |
| O=c1c(O)cc([C@H]2Oc3cc(O)cc(O)c3C[C@H]2O)cc2c([C@H]3Oc4cc(O)cc(O)c4C[C@H]3O)cc(O)c(O)c12 [Theaflavin] | 65.4% | 34.62 (±0.06) % | 65% | 66.75 (±1.11) % | 85.3 µM | inhibition at 100 µM [2, 12]: 33%; IC50 ([2]; 10-dose, threefold serial dilution starting at 100 μM): > 100 µM; IC50 [8]: > 100 µM |
| COc1ccc(Cl)cc1C(=O)NCCc1ccc(S(=O)(=O)NC(=O)NC2CCCCC2)cc1 [Glyburide, reference compound] | 60% | 40.04 (±0.78) % | 60% | 95.97 (±4.76) % | 55.9 µM |  |
| Cc1[nH]c2ccccc2c1CCNCc1ccc(/C=C/C(=O)NO)cc1 [Panobinostat, reference compound] | 62.7% |  | 63% |  |  |  |

Second part, led by results:

| inhibition at 100 µM [1, 9] | relative enzymatic activity of DNMT1 ([1]; 1 μM SAM) | inhibition at 100 µM [1, 10] | relative enzymatic activity of DNMT3B ([2]; 100 μM compound) | IC50 [1, 11] | SMILES | further results |
| --- | --- | --- | --- | --- | --- | --- |
| 26.6% | 73.45 (±3.06) % | 27% | 90.59 (±2.49) % |  | Cc1ccnc2nc(C(=O)Nc3nc(-c4ccc5c(c4)OCO5)cs3)nn12 [CSC026286840] | inhibition of DNMT1 ([1]; rounded values): 30% |
| -5.71% | 105.71 (±1.27) % |  | 97.85 (±5.66) % |  | O=C(O)c1ccc(NS(=O)(=O)c2ccc(N3CCCC3=O)cc2)cc1 [CSC027083851] |  |
| 30% | 70.63 (±0.19) % | 29% | 96.39 (±0.28) % |  | Cc1cc(NC(=O)CN2CCN(c3cc(C(N)=O)c4ccccc4n3)CC2)no1 [CSC027480404] | inhibition of DNMT1 ([1]; rounded values): 30% |
| 64.6% | 35.42 (±1.78) % | 65% | 97.42 (±2.49) % | 85.1 µM | Cc1cc(NCc2nnc(Cc3ccccc3)o2)ccc1C(N)=O [CSC027694519] |  |
| -7.25% | 107.25 (±0.59) % |  | 95.28 (±0.47) % |  | CC(C)(CC(=O)Nc1cccc(Cn2cccn2)c1)C(=O)O [CSC027796832] |  |
